The text below walks through data of patent US10961202B2, “Bis-benzimidazole compounds and methods of using the same” (THE SCRIPPS RESEARCH INSTITUTE, priority 2017, dated 2021).

Molecules are shown by their SMILES. Where only a bound is given, the exact number is not on record here.

This experiment relates to r(CUG)12-MBNL1 complex. As to the kind of experiment: Inhibition of the r(CUG)12-MBNL1 complex measured by TR-FRET. The conditions noted are these: 80 nM RNA, 60 nM MBNL1-His6. In kind it is biochemical.

What is called IC50 is the concentration at which inhibition is half-maximal. `NC(=O)Cc1ccc(-c2nc3cc(-c4ccc5[nH]c(-c6ccc(CC(N)=O)cc6)nc5c4)ccc3[nH]2)cc1` [Compound 124, 2,2′-(1H,1′H-[5,5′-bibenzo[d]imidazole]-2,2′-diylbis(4,1-phenylene))diacetamide]: it took 170 µM to reach half-maximal inhibition (Table L) (IC50). On to `NCC(=O)NCC(=O)NCc1cn(CCN2CCN(CCNC(=O)c3ccc4nc(-c5ccc(-c6nc7ccc(C(=O)NCCN8CCCCC8)cc7[nH]6)cc5)[nH]c4c3)CC2)nn1` [Compound 178, N-(2-(4-(2-(4-((2-(2-aminoacetamido)acetamido)methyl)-1H-1,2,3-triazol-1-yl)ethyl)piperazin-1-yl)ethyl)-2-(4-(6-((2-(piperidin-1-yl)ethyl)carbamoyl)-1H-benzo[d]imidazol-2-yl)phenyl)-1H-benzo[d]imidazole-6-carboxamide], for which the IC50 (Table M) was found to be 7.9 µM.

The compound `c1cn(-c2ccc3nc(-c4ccc(-c5nc6ccc(-n7ccnc7)cc6[nH]5)cc4)[nH]c3c2)cn1` [Compound 20, 1,4-bis(6-(1H-imidazol-1-yl)-1H-benzo[d]imidazol-2-yl)benzene] displayed an IC50 (Table L) greater than 200 µM. Regarding `c1cc2nc(-c3ccc(-c4nc5ccc(OCCN6CCOCC6)cc5[nH]4)cc3)[nH]c2cc1OCCN1CCOCC1` [Compound 186], the IC50 (Table M) is greater than 200 µM. Compound `c1cc(-c2nc3cc(-c4ccc5[nH]c(-c6ccc(CN7CCCC7)cc6)nc5c4)ccc3[nH]2)ccc1CN1CCCC1` [Compound 127, 2,2′-bis(4-(pyrrolidin-1-ylmethyl)phenyl)-1H,1′H-5,5′-bibenzo[d]imidazole] gave an IC50 (Table L) of 27.8 µM. Take `CCCOc1cc(-c2nc3cc(OCCCN(C)C)ccc3[nH]2)c(OCCC)cc1-c1nc2cc(OCCCN(C)C)ccc2[nH]1` [Compound 332]: the half-maximal inhibitory concentration (IC50) (Table M) was found to be 27.2 µM.

Consider `C#CCCCCN(C)CCNC(=O)c1ccc(-c2nc3cc(-c4ccc5[nH]c(-c6ccc(C(=O)NCCN(C)C)cc6)nc5c4)ccc3[nH]2)cc1` [Compound 114, N-(2-(dimethylamino)ethyl)-4-(2′-(4-((2-(hex-5-yn-1-yl(methyl)amino)ethyl)carbamoyl)phenyl)-1H,1′H-[5,5′-bibenzo[d]imidazol]-2-yl)benzamide], for which, where the note is “Table L”, the 50% inhibitory concentration (IC50) was 9.5 µM. In other words, the single-digit micromolar range. In turn, `CN(C)CC(C)(C)COc1ccc2nc(-c3ccc(-c4nc5ccc(OCC(C)(C)CN(C)C)cc5[nH]4)cc3)[nH]c2c1` [Compound 180] had an IC50 (Table M) of 78.9 µM. The compound `CN(C)CCCOc1ccc2[nH]c(-c3ccc(-c4nc5cc(OCCCN(C)C)ccc5n4C)cc3)nc2c1` [Compound 313] gave a 50% inhibitory concentration (IC50) (Table M) greater than 200 µM.

`CN(C)CCNC(=O)c1ccc2nc(-c3ccc(-c4nc5ccc(C(=O)NCCN)cc5[nH]4)cc3)[nH]c2c1` [Compound 29, N-(2-aminoethyl)-2-(4-(6-((2-(dimethylamino)ethyl)carbamoyl)-1H-benzo[d]imidazol-2-yl)phenyl)-1H-benzo[d]imidazole-6-carboxamide] came in with an IC50 (Table L) of 9.6 µM.

`CN(C)CCOC(=O)c1ccc2nc(-c3ccc(-c4nc5ccc(C(=O)OCCN(C)C)cc5[nH]4)cc3)[nH]c2c1` [Compound 54, bis(2-(dimethylamino)ethyl) 2,2′-(1,4-phenylene)bis(1H-benzo[d]imidazole-6-carboxylate)]: 3.6 µM corresponded to half-maximal inhibition (Table L) (IC50). `CN(C)CCCOc1ccc2nc(-c3ccc(-c4nc5ccc(OCCCN(C)C)cc5[nH]4)c([N+](=O)[O-])c3)[nH]c2c1` [Compound 288, 3,3′-(((2-nitro-1,4-phenylene)bis(1H-benzo[d]imidazole-2,6-diyl))bis(oxy))bis(N,N-dimethylpropan-1-amine)]: the IC50 (Table M) is 42.6 µM. That is a double-digit micromolar value. Under “Table L”, `Nc1ccc2[nH]c(-c3ccc(-c4nc5cc(NC6=NCCN6)ccc5[nH]4)cc3)nc2c1` [Compound 24, 2-(4-(5-amino-1H-benzo[d]imidazol-2-yl)phenyl)-N-(4,5-dihydro-1H-imidazol-2-yl)-1H-benzo[d]imidazol-5-amine] registered a half-maximal inhibitory concentration (IC50) of 35 µM. This lies in the double-digit micromolar range. In the case of `c1cnc(Nc2ccc3nc(-c4ccc(-c5nc6ccc(Nc7ncccn7)cc6[nH]5)cc4)[nH]c3c2)nc1` [Compound 8, 2,2′-(1,4-phenylene)bis(N-(pyrimidin-2-yl)-1H-benzo[d]imidazol-5-amine)], the 50% inhibitory concentration (IC50) (Table L) came to 150 µM. `CN(C)CCCNC(=O)c1ccc2nc(-c3ccc(-c4nc5ccc(C(=O)NCCN(C)C)cc5[nH]4)cc3)[nH]c2c1` [Compound 35, N-(2-(dimethylamino)ethyl)-2-(4-(6-((3-(dimethylamino)propyl)carbamoyl)-1H-benzo[d]imidazol-2-yl)phenyl)-1H-benzo[d]imidazole-6-carboxamide] came in with an IC50 (Table L) of 6.2 µM. Compound `CN(C)CCCSCCOc1ccc2nc(-c3ccc(-c4nc5ccc(OCCSCCCN(C)C)cc5[nH]4)cc3)[nH]c2c1` [Compound 207] came in with an IC50 (Table M) of 48.6 µM. In turn, `CN(C)CCCOc1ccc2nc(-c3cnc(-c4nc5ccc(OCCCN(C)C)cc5[nH]4)nc3)[nH]c2c1` [Compound 317] registered an IC50 (Table M) of 21.4 µM. For the setting “Table M”, `CN(C)Cc1cccc(COc2ccc3nc(-c4ccc(-c5nc6ccc(OCc7cccc(CN(C)C)c7)cc6[nH]5)cc4)[nH]c3c2)c1` [Compound 213, 1,1′-((((1,4-phenylenebis(1H-benzo[d]imidazole-2,6-diyl))bis(oxy))bis(methylene))bis(3,1-phenylene))bis(N,N-dimethylmethanamine)] registered a half-maximal inhibitory concentration (IC50) of 22.8 µM. As for `CN1CCN(CCNC(=O)c2ccc(-c3nc4cc(-c5ccc6[nH]c(-c7ccc(C(=O)O)cc7)nc6c5)ccc4[nH]3)cc2)CC1` [Compound 343], the concentration for half-maximal inhibition (IC50) (Table M) is 73.2 µM. For the setting “Table M”, `CN(C)CCCSc1ccc(-c2nc3cc(-c4ccc5[nH]c(-c6ccc(SCCCN(C)C)cc6)nc5c4)ccc3[nH]2)cc1` [Compound 383] yielded an IC50 of 41.6 µM. With `CN(C)CCNC(=O)c1ccc(-c2nc3ccc(-c4ccc5nc(-c6ccc(C(=O)NCCCN(C)CCCNC(=O)c7ccc(-c8nc9ccc(-c%10ccc%11nc(-c%12ccc(C(=O)NCCN(C)C)cc%12)[nH]c%11c%10)cc9[nH]8)cc7)cc6)[nH]c5c4)cc3[nH]2)cc1` [Compound 451], the 50% inhibitory concentration (IC50) (Table M) is 14 µM. Against the preceding compound, the IC50 is about 3-fold lower. As to `Nc1ccc2nc(-c3ccc(-c4nc5ccc(Nc6ncc[nH]6)cc5[nH]4)cc3)[nH]c2c1` [Compound 19, 2-(4-(5-amino-1H-benzo[d]imidazol-2-yl)phenyl)-N-(1H-imidazol-2-yl)-1H-benzo[d]imidazol-5-amine], 34 µM corresponded to half-maximal inhibition (Table L) (IC50). In other words, the double-digit micromolar range. Regarding `CN(C)CCn1cc(-c2ccc3nc(-c4ccc(-c5nc6ccc(-c7cn(CCN(C)C)nn7)cc6[nH]5)cc4)[nH]c3c2)nn1` [Compound 251, 2,2′-(4,4′-(2,2′-(1,4-phenylene)bis(1H-benzo[d]imidazole-6,2-diyl))bis(1H-1,2,3-triazole-4,1-diyl))bis(N,N-dimethylethanamine)], 112 µM corresponded to half-maximal inhibition (Table M) (IC50). `CN(C)CCCOc1ccc2nc(-c3ccc(-c4nc5ccc(OCCCC(=O)NCCN(C)C)cc5[nH]4)cc3)[nH]c2c1` [Compound 318] returned an IC50 (Table M) greater than 200 µM. Under “Table M”, `CN(C)CCNC(=O)c1ccc(-c2nc3cc(-c4ccc5[nH]c(-c6ccc(C(=O)NCCN(C)CCCCc7cn(CCCNC(=O)CCC(=O)NCCCN=[N+]=[N-])nn7)cc6)nc5c4)ccc3[nH]2)cc1` [Compound 345] showed an IC50 of 33.5 µM. The compound `CN(C)CCNC(=O)c1ccc(-c2nc3cc(-c4ccc5[nH]c(-c6ccc(C#N)cc6)nc5c4)ccc3[nH]2)cc1` [Compound 109] showed an IC50 (Table L) of 15 µM.
